Values quoted from earlier work as cited in US20190307734A1 (Zhuhai Beihai Biotech Co., Ltd., priority 2016, published 2019).

Tests used:
[1] = not given; remark: listed apart in the source
CYP 2C9 = CYP 2C9 (Homo sapiens, UniProt P11712); conditions: in vitro
CYP 2C19 = CYP 2C19 (Homo sapiens, UniProt P33261); conditions: in vitro
CYP 2D6 = CYP 2D6 (Homo sapiens, UniProt P10635); conditions: in vitro
[2] = system: cytochrome P450 3A4 (CYP3A4)
p-glycoprotein = p-glycoprotein (Homo sapiens, UniProt P08183); conditions: in vitro
Sequence of p-glycoprotein (P08183 whole entry): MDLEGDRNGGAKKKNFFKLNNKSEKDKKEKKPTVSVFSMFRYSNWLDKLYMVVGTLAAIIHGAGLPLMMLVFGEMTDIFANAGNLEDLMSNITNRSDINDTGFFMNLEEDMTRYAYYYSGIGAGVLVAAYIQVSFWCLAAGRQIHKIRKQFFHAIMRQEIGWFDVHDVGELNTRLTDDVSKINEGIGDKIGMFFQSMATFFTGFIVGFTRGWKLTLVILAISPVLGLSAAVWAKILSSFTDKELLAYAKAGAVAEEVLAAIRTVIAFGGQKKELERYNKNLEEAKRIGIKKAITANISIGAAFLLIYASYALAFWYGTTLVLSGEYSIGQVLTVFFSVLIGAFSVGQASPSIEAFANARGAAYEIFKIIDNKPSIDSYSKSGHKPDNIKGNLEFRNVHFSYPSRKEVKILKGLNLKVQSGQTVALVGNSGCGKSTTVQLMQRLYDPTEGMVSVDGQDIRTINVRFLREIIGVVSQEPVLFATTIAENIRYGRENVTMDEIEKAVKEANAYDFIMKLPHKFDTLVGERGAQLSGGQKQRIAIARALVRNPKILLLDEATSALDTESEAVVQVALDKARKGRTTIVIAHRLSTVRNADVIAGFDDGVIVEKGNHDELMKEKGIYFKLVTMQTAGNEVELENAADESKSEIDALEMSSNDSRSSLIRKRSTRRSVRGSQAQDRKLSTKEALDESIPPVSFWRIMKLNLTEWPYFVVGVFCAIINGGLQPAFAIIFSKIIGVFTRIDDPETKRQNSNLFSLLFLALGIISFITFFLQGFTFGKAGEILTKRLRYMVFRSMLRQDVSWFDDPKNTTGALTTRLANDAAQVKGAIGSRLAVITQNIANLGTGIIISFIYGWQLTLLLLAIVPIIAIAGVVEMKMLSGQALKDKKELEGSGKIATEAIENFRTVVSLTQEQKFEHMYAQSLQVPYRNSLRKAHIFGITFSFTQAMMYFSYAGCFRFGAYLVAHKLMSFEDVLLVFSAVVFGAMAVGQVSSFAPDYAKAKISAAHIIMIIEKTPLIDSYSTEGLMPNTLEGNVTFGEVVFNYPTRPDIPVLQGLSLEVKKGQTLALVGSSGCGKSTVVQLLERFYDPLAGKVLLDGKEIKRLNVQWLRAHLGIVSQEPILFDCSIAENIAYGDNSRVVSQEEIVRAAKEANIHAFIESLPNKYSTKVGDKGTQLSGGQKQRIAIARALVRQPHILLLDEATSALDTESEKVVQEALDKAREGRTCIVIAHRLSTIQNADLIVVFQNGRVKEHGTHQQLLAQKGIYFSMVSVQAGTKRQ

Sequence of CYP 2C19 (P33261 whole entry): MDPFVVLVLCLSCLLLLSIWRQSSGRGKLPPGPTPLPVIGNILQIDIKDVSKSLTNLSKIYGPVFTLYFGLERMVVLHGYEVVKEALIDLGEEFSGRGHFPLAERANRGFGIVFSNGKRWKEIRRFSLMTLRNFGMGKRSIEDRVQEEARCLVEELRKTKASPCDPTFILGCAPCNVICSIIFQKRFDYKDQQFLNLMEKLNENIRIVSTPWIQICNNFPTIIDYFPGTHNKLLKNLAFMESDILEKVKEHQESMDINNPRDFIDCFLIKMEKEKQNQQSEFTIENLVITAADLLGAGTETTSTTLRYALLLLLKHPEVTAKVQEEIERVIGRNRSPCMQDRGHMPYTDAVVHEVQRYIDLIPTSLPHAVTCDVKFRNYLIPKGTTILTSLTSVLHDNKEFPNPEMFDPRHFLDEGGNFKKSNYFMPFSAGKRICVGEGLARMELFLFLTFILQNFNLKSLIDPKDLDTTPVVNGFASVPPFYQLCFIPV
Sequence of CYP 2C9 (P11712 whole entry): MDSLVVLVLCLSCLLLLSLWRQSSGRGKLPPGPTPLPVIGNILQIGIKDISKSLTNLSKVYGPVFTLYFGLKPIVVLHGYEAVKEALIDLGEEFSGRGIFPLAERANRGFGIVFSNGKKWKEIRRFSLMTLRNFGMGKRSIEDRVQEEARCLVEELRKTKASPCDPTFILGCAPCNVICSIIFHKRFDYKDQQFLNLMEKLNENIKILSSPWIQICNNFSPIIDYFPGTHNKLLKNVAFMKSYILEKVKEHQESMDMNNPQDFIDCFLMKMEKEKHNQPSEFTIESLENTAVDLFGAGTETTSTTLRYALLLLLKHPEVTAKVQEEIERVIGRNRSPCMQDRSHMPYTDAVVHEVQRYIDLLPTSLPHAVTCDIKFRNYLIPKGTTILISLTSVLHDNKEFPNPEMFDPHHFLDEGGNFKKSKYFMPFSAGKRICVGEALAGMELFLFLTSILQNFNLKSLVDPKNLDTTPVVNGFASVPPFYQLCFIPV
Sequence of CYP 2D6 (P10635 whole entry): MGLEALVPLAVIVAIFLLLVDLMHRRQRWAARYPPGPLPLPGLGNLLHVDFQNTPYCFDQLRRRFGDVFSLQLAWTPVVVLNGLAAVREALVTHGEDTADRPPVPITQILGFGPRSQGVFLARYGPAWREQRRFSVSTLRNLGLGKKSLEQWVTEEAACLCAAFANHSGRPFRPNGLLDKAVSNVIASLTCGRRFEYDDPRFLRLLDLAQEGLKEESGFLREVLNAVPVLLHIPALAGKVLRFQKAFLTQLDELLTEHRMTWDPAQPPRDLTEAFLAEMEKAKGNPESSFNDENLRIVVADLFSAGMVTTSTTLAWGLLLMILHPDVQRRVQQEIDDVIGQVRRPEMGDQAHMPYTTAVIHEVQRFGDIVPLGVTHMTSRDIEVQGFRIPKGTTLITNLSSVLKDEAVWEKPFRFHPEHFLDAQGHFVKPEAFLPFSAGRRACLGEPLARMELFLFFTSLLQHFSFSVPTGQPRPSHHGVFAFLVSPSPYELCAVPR

SMILES | solubility in aqueous solution, pH dependence (aqueous solution) | solubility in common pharmaceutical solvents (ethanol, propylene glycol, 40% hydroxypropyl beta cyclodextrin) | absorption after oral dosing [1] | protein bound to human plasma (human plasma) [%] | inhibition of CYP 2C9 (CYP 2C9) | inhibition of CYP 2C19 (CYP 2C19) | inhibition of CYP 2D6 (CYP 2D6) | induction or inhibition of CYP3A4 enzyme ([2]; Hesketh et al., Cancer 2016) | inhibition of CYP 3A4 ([2]; in vitro) | inhibition of p-glycoprotein (p-glycoprotein) | solubility at physiological pH (pH 7.4) [mcg/ml] | solubility in water (water)
C[C@@H](OC[C@@]1(c2ccccc2)CC[C@]2(CCC(=O)N2)CN1)c1cc(C(F)(F)F)cc(C(F)(F)F)c1.Cl [Rolapitant hydrochloride, rolapitant hydrochloride] | pH-dependent and is more soluble at lower pH | good solubility |  |  |  |  |  |  |  |  |  | 
C[C@@H](OC[C@@]1(c2ccccc2)CC[C@]2(CCC(=O)N2)CN1)c1cc(C(F)(F)F)cc(C(F)(F)F)c1 [Rolapitant, rolapitant] |  |  | rapidly absorbed | 99.8 | did not inhibit | did not inhibit | did not inhibit | does not induce or inhibit | did not inhibit | did not inhibit | < 4 | practically insoluble
